Data: patent US4877795A, “4H-quinolizin-4-one compounds useful for the treatment of allergic bronchial asthma, allergic rhinitis atropic dermatitis and the like” (Kissei Pharmaceutical Co., Ltd., priority 1987, dated 1989)

Tests used:
IgG = assay: Determination of Igs produced in in vitro culture: inhibition of IgG secreted by spleen cells (adoptive secondary immune response to DNP-As), ELISA; type: cell-based, BALB/c mice; conditions: 4 days culture; for inhibition at 0.25 µg/mL / inhibition at 10 µg/mL / inhibition at 2.5 µg/mL / inhibition at 5 µg/mL / inhibition at 1 µg/mL / inhibition at 40 µg/mL: Mus musculus, 96 h; for inhibition at 0.25 µg/mL: 0.25 μg/ml; for inhibition at 10 µg/mL: 10.0 μg/ml; for inhibition at 2.5 µg/mL: 2.5 μg/ml; for inhibition at 5 µg/mL: 5.0 μg/ml; for inhibition at 1 µg/mL / Inhibition % of IgG: 1.0 μg/ml; for inhibition at 40 µg/mL: 40.0 μg/ml
Method: (§1) Determination of Igs produced in in vitro culture
(§2) BALB/c mice were immunized intraperitoneally with 5 μg of DNP-As adsorbed in 4 mg aluminum hydroxide gel. 4 weeks after the immunization, the spleens were excised from the mice and 5×10^7 spleen cells were transferred intravenously into the recipient mice which had been exposed to 600 rad of X-ray irradiation. Immediately after cell transfer, the recipients were then immunized intraperitoneally with 5 μg of DNP-As adsorbed in 4 mg aluminum hydroxide gel to induce adoptive secondary immune response. Further 4 weeks after the immunization of recipients, the spleens were excised from them and the spleen cell suspensions 5×10^6 cells/ml were cultured with or without a compound to be tested in 96-well micro plates at 37° C. for 4 days. IgE and IgG secreted into the culture supernatant was each determined correspondingly by ELISA and the inhibitory effect was calculated according to the following equation. [formula]

IgE = assay: Determination of Igs produced in in vitro culture: inhibition of IgE secreted by spleen cells (adoptive secondary immune response to DNP-As), ELISA; type: cell-based, BALB/c mice; conditions: 4 days culture; for inhibition at 0.25 µg/mL / inhibition at 10 µg/mL / inhibition at 2.5 µg/mL / inhibition at 5 µg/mL / inhibition at 1 µg/mL / inhibition at 40 µg/mL: Mus musculus, 96 h; for inhibition at 0.25 µg/mL: 0.25 μg/ml; for inhibition at 10 µg/mL: 10.0 μg/ml; for inhibition at 2.5 µg/mL: 2.5 μg/ml; for inhibition at 5 µg/mL: 5.0 μg/ml; for inhibition at 1 µg/mL / Inhibition % of IgE: 1.0 μg/ml; for inhibition at 40 µg/mL: 40.0 μg/ml
Method: as §1, §2

`CSc1c(C#N)c(=O)n2ccccc2c1C(=O)OCc1ccc(C(C)C)cc1` [S-36, 4'-Isopropylbenzyl 3-cyano-2-methylthio-4H-quinolizin-4-one-1-carboxylate] was tested, and the inhibition at 0.25 µg/mL (IgG) was 8% and the inhibition at 0.25 µg/mL (IgE) was 33%.

For `C#CCOC(=O)c1c(SC)c(C#N)c(=O)n2ccccc12` [S-6, 2'-Propynl 3-cyano-2-methylthio-4H-quinolizin-4-one-1-carboxylate], the inhibition at 10 µg/mL (IgG) was 35% and the inhibition at 10 µg/mL (IgE) was 63%.

For `CSc1c(C#N)c(=O)n2ccccc2c1C(=O)Cc1cccc2ccccc12` [S-103, 3-Cyano-2-mehtylthio-1-(1-naphthylacetyl)-4H-quinolizin-4-one], the inhibition at 2.5 µg/mL (IgG) was 15% and the inhibition at 2.5 µg/mL (IgE) was 49%.

Compound `CSc1c(C#N)c(=O)n2ccccc2c1C(=O)NCCCc1ccccc1` [S-71] has an inhibition at 5 µg/mL (IgG) of 35% and an inhibition at 5 µg/mL (IgE) of 63%.

Compound `CSc1c(C#N)c(=O)n2ccccc2c1C(=O)N(CC(C)C)CC(C)C` [S-64, 3-Cyano-N,N-diisobutyl-2-methylthio-4H-quinolizin-4-one-1-carboxamide] has an inhibition at 5 µg/mL (IgG) of 41% and an inhibition at 5 µg/mL (IgE) of 65%.

Compound `CSc1c(C#N)c(=O)n2ccccc2c1C(=O)CCCc1ccccc1` [S-105, 3-Cyano-2-methylthio-1-(4-phenylbutyryl)-4H-quinolizin-4one] has an inhibition at 1 µg/mL (IgG) of 21% and an inhibition at 1 µg/mL (IgE) of 65%.

Compound `CCN(CC)C(=O)c1c(SC)c(C#N)c(=O)n2ccccc12` [S-62, 3-Cyano-N,N-diethyl-2-methylthio-4H-quinolizin-4-one-1-carboxamide] has an inhibition at 40 µg/mL (IgG) of 36% and an inhibition at 40 µg/mL (IgE) of 64%.

With `CSc1c(C#N)c(=O)n2ccccc2c1C(=O)OCc1ccccc1Cl` [S-39, 2'-Chlorobenzyl 3-cyano-2-methylthio-4H-quinolizin-4-one-1-carboxylate] the inhibition at 1 µg/mL (IgG) was 31% and the inhibition at 1 µg/mL (IgE) was 65%.

`CSc1c(C#N)c(=O)n2ccccc2c1C(=O)OC1C=CCCC1` (centres unmarked) [S-15, 2'-Cyclohexenyl 3-cyano-2-methylthio-4H-quinolizin-4-one-1-carboxylate] showed an inhibition at 40 µg/mL (IgG) of 21% and an inhibition at 40 µg/mL (IgE) of 62%.

Work on `CSc1c(C#N)c(=O)n2ccccc2c1C(=O)CC1CCCCC1` [S-94, 3-Cyano-1-cyclohexylacetyl-2-methylthio-4H-quinolizin-4-one] yielded an inhibition at 1 µg/mL (IgG) of 33% and an inhibition at 1 µg/mL (IgE) of 62%.

In the case of `CSc1c(C#N)c(=O)n2ccc(C)cc2c1C(=O)OC1CCCCC1` [S-18, Cyclohexyl 3-cyano-8-methyl-2-methylthio-4H-quinolizin-4-one-1-carboxylate], the inhibition at 2.5 µg/mL (IgG) is reported as 34% and the inhibition at 2.5 µg/mL (IgE) is reported as 54%.

`CSc1c(C#N)c(=O)n2ccccc2c1C(=O)Nc1nc(-c2ccccc2)cs1` [S-75, 3-Cyano-2-methylthio-N-(4-phenyl-2-thiazolyl)-4H-quinolizin-4-one-1-carboxamide] was tested, and the inhibition at 2.5 µg/mL (IgG) was 25% and the inhibition at 2.5 µg/mL (IgE) was 50%.

In the case of `COc1cc(COC(=O)c2c(SC)c(C#N)c(=O)n3ccccc23)cc(OC)c1OC` [S-27, 3',4',5'-Trimethoxybenzyl 3-cyano-2-methylthio-4H-quinolizin-4-one-1-carboxylate], the inhibition at 2.5 µg/mL (IgG) is reported as 16% and the inhibition at 2.5 µg/mL (IgE) is reported as 56%.

Work on `CCSc1c(C#N)c(=O)n2ccccc2c1C(=O)OCCCc1ccccc1` [S-52, 3'-Phenylpropyl 3-cyano-2-ethylthio-4H-quinolizin-4-one-1-carboxylate] yielded an inhibition at 0.25 µg/mL (IgG) of 17% and an inhibition at 0.25 µg/mL (IgE) of 46%.

`CSc1c(C#N)c(=O)n2ccccc2c1C(=O)OCc1ccc2ccccc2c1` [S-41, 2'-Napthylmethyl 3-cyano-2-methylthio-4H-quinolizin-4-one-1-carboxylate] gave an inhibition at 1 µg/mL (IgG) of 68% and an inhibition at 1 µg/mL (IgE) of 86%.

`CSc1c(C#N)c(=O)n2ccccc2c1C(=O)N1CCC(Cc2ccccc2)CC1` (single isomer, unassigned) [S-82B, 1-(4-Benzylpiperidinocarbonyl)-3-cyano-2-methylthio-4H-quinolizin-4-one] gave an inhibition at 2.5 µg/mL (IgG) of 8% and an inhibition at 2.5 µg/mL (IgE) of 63%.

For `CSc1c(C#N)c(=O)n2ccccc2c1C(C)=O` [S-92, 1-Acetyl-3-cyano-2-methylthio-4H-quinolizin-4-one], the inhibition at 40 µg/mL (IgG) was 8% and the inhibition at 40 µg/mL (IgE) was 56%.

For `CSc1c(C#N)c(=O)n2ccccc2c1C(=O)NCc1ccccc1` [S-73, N-Benzyl-3-cyano-2-methylthio-4H-qunolizin-4-one-1-carboxamide], the inhibition at 40 µg/mL (IgG) was 24% and the inhibition at 40 µg/mL (IgE) was 55%.

For `N#Cc1c(SCc2ccccc2)c(C(=O)N2CCC(Cc3ccccc3)CC2)c2ccccn2c1=O` (single isomer, unassigned) [S-84B, 1-(4-Benzylpiperidinocarbonyl)-2-benzylthio-3-cyano-4H-quinolizin-4-one], the “Inhibition % of IgG” value (IgG) was 32% and the “Inhibition % of IgE” value (IgE) was 58%.

Work on `CSc1c(C#N)c(=O)n2ccccc2c1C(=O)N1CCC(OC(C)=O)(c2ccccc2)CC1` [S-80, 1-(4-Acetoxy-4-phenylpiperidinocarbonyl)-3-cyano-methylthio-4H-quinolizin-4-one] yielded an inhibition at 2.5 µg/mL (IgG) of 34% and an inhibition at 2.5 µg/mL (IgE) of 66%.

In the case of `CSc1c(C#N)c(=O)n2ccccc2c1C(=O)OCc1ccc(Br)cc1` [S-23, 4'-Bromobenzyl 3-cyano-2-methylthio-4H-quinolizin-4-one-1-carboxylate], the inhibition at 1 µg/mL (IgG) is reported as 34% and the inhibition at 1 µg/mL (IgE) is reported as 79%.

In the case of `COc1ccccc1COC(=O)c1c(SC)c(C#N)c(=O)n2ccccc12` [S-37, 2'-Methoxybenzyl 3-cyano-2-methylthio-4H-quinolizin-4-one-1-carboxylate], the inhibition at 0.25 µg/mL (IgG) is reported as 11% and the inhibition at 0.25 µg/mL (IgE) is reported as 36%.

`CCCCCCN(CCCCCC)C(=O)c1c(SC)c(C#N)c(=O)n2ccccc12` [S-65, 3-Cyano-N,N-dihexyl-2-methylthio-4H-quinolizin-4-one-1-carboxamide] was tested, and the inhibition at 2.5 µg/mL (IgG) was 40% and the inhibition at 2.5 µg/mL (IgE) was 87%.

With `CSc1c(C#N)c(=O)n2ccccc2c1C(=O)CC1CCN(c2ccccc2)CC1` [S-109, 3-Cyano-2-methylthio-1-(1-phenyl-4-piperidylacetyl)-4-quinolizin-4-one] the “Inhibition % of IgG” value (IgG) was 54% and the “Inhibition % of IgE” value (IgE) was 77%.

`CSc1c(C#N)c(=O)n2ccccc2c1C(=O)OCc1ccc(C)c(C)c1` [S-25, 3',4'-Dimethylbenzyl 3-cyano-2-methylthio-4H-quinolizin-4-one-1-carboxylate] gave an inhibition at 5 µg/mL (IgG) of 54% and an inhibition at 5 µg/mL (IgE) of 75%.

With `CSc1c(C#N)c(=O)n2ccccc2c1C(=O)OC(C)c1ccc(Br)cc1` (centres unmarked) [S-30, 1'-(4-Bromophenyl)ethyl 3-cyano-2-methylthio-4H-quinolizin-4-one-1-carboxylate] the inhibition at 0.25 µg/mL (IgG) was 27% and the inhibition at 0.25 µg/mL (IgE) was 45%.

Compound `CSc1c(C#N)c(=O)n2ccccc2c1C(=O)OCc1ccccc1` [S-29, Benzyl 3-cyano-2-methylthio-4H-quinolizin-4-one-1-carboxylate] has an inhibition at 1 µg/mL (IgG) of 31% and an inhibition at 1 µg/mL (IgE) of 69%.

In the case of `CSc1c(C#N)c(=O)n2ccccc2c1C(=O)N(Cc1ccccc1)Cc1ccccc1` [S-60, 3-Cyano-N,N-dibenzyl-2-methylthio-4H-quinolizin-4-one-1-carboxamide], the inhibition at 1 µg/mL (IgG) is reported as 25% and the inhibition at 1 µg/mL (IgE) is reported as 58%.

With `N#Cc1c(SCc2ccccc2)c(C(=O)N2CCC(Cc3ccccc3)CC2)c2ccccn2c1=O` (single isomer, unassigned) [S-84A, 1-(4-Benzylpiperidinocarbonyl)-2-benzylthio-3-cyano-4H-quinolizin-4-one] the inhibition at 1 µg/mL (IgG) was 22% and the inhibition at 1 µg/mL (IgE) was 58%.

Work on `CSc1c(C#N)c(=O)n2ccccc2c1C(=O)OC1CCC1` [S-13, Cyclobutyl 3-cyano-2-methylthio-4H-quinolizin-4-one-1-carboxylate] yielded an inhibition at 5 µg/mL (IgG) of 9% and an inhibition at 5 µg/mL (IgE) of 67%.

In the case of `CCCCSc1c(C#N)c(=O)n2ccccc2c1C(=O)OCC` [S-58, Ethyl 3-cyano-2-butylthio-4H-quinolizin-4-one-1-carboxylate], the inhibition at 10 µg/mL (IgG) is reported as 60% and the inhibition at 10 µg/mL (IgE) is reported as 89%.

For `CSc1c(C#N)c(=O)n2ccccc2c1C(=O)N1CCN(c2ccccc2)CC1` [S-91, 3-Cyano-2-methylthio-1-(4-phenyl-1-piperadinylcarbonyl)-4H-quinolizin-4-one], the inhibition at 2.5 µg/mL (IgG) was 11% and the inhibition at 2.5 µg/mL (IgE) was 39%.

With `CSc1c(C#N)c(=O)n2ccccc2c1C(=O)OCC1CCCCC1` [S-1, Cyclohexylmethyl 3-cyano-2-methylthio-4H-quinolizin-4-one-1-carboxylate] the inhibition at 5 µg/mL (IgG) was 22% and the inhibition at 5 µg/mL (IgE) was 65%.

In the case of `CSc1c(C#N)c(=O)n2ccccc2c1C(=O)N1CCCc2ccccc21` [S-88, 3-Cyano-2-methylthio-1-(1,2,3,4-tetrahydroquinolin-1-ylcarbonyl)-4H-quinolizin-4-one], the inhibition at 2.5 µg/mL (IgG) is reported as 7% and the inhibition at 2.5 µg/mL (IgE) is reported as 40%.

For `CSc1c(C#N)c(=O)n2ccccc2c1C(=O)CCCc1cccs1` [S-106, 3-Cyano-2-methylthio-1-(4-thienylbutyryl)-4H-quinolizin-4-one], the “Inhibition % of IgG” value (IgG) was 26% and the “Inhibition % of IgE” value (IgE) was 61%.

For `CCCC(=O)c1c(SC)c(C#N)c(=O)n2ccccc12` [S-93, 1-Butyryl-3-cyano-2-methylthio-4H-quinolizin-4-one], the inhibition at 10 µg/mL (IgG) was 31% and the inhibition at 10 µg/mL (IgE) was 62%.

Work on `CSc1c(C#N)c(=O)n2ccccc2c1C(=O)NC1CCCc2ccccc21` (centres unmarked) [S-76, 3-Cyano-2-methylthio-N-(1,2,3,4-tetrahydro-1-naphthyl)-4H-quinolizin-4-one-1-carboxamide] yielded an inhibition at 2.5 µg/mL (IgG) of 1% and an inhibition at 2.5 µg/mL (IgE) of 37%.
